Results from patent publication US8575127B2, “Antithrombotic diadenosine tetraphosphates and related analogs” (GLSynthesis Inc., priority 2008, dated 2013).

system: ADP-induced human platelet aggregation; assay: ADP-induced platelet aggregation in platelet-rich human plasma (optical aggregometry); format: cell-based; conditions: inhibition of 3 μM ADP-induced human platelet aggregation, average of 2 experiments
Description: Platelet aggregation was initiated by adding ADP (3 μM) in the presence or absence of various concentrations of test compound to platelet-rich human plasma, and the aggregation response was recorded for six minutes in a Chrono-log® aggregometer running the Aggro/Link software (Chrono-log®, Havertown, Pa.).

IC50 [nM] | Compound
89 ± 38 | CSc1nc(N)c2ncn(C3OC(COP(=O)(O)OP(=O)(O)OP(=O)(O)OP(=O)(O)OCC4OC(n5cnc6c(N)nc(SC)nc65)C(O)C4O)C(O)C3O)c2n1 (stereo not shown) [Compound 2, tetrasodium P^1,P^4-bis-(2-methylthio-5′-adenosine)tetraphosphate]
50 ± 37 | CSc1nc(N)c2ncn(C3OC(COP(O)(=S)OP(=O)(O)OP(=O)(O)OP(O)(=S)OCC4OC(n5cnc6c(N)nc(SC)nc65)C(O)C4O)C(O)C3O)c2n1 (stereo not shown) [Compound 10, P^1,P^4-bis-(2-methylthio-5′-adenosine)-P^1,P^4-dithiotetraphosphate]
260 | CNc1nc(SC)nc2c1ncn2C1OC(COP(O)(=S)OP(=O)(O)C(Cl)P(=O)(O)OP(O)(=S)OCC2OC(n3cnc4c(NC)nc(SC)nc43)C(O)C2O)C(O)C1O (stereo not shown) [Compound 22, P^1,P^4-bis(N^6-methyl-2-methylthio-5′-adenosine)-P^1,P^4-dithio-P^2,P^3-monochloromethylenetetraphosphate]
15 ± 10 | CCCSc1nc(N)c2ncn([C@@H]3O[C@H](COP(O)(=S)OP(=O)(O)C(Cl)P(=O)(O)OP(O)(=S)OC[C@H]4O[C@@H](n5cnc6c(N)nc(SCCC)nc65)[C@H](O)[C@@H]4O)[C@@H](O)[C@H]3O)c2n1 (stereo partly shown) [Compound 32, P^1,P^4-bis(2-propylthio-5′-adenosine)-P^1,P^4-dithio-P^2,P^3-monochloromethylenetetraphosphate]

Second part, the compound before the results:

Compound | IC50 [nM]
CNc1ncnc2c1ncn2[C@@H]1O[C@H](COP(O)(=S)OP(=O)(O)C(Cl)P(=O)(O)OP(O)(=S)OC[C@H]2O[C@@H](n3cnc4c(NC)ncnc43)[C@H](O)[C@@H]2O)[C@@H](O)[C@H]1O (stereo partly shown) [Compound 8, P^1,P^4-bis(N^6-methyl-5′-adenosine)-P^1,P^4-dithio-P^2,P^3-monochloromethylenetetraphosphate] | 3520 ± 830
CCCNc1ncnc2c1ncn2C1OC(COP(O)(=S)OP(=O)(O)C(Cl)P(=O)(O)OP(O)(=S)OCC2OC(n3cnc4c(NCCC)ncnc43)C(O)C2O)C(O)C1O (stereo not shown) [Compound 12, P^1,P^4-bis-(N^6-propyl-5′-adenosine)-P^1,P^4-dithio-P^2,P^3-monochloromethylenetetraphosphate] | 5560 ± 1700
CSc1nc(N)c2ncn(C3OC(COP(O)(=S)OP(=O)(O)C(Cl)P(=O)(O)OP(O)(=S)OCC4OC(n5cnc6c(N)nc(SC)nc65)C(O)C4O)C(O)C3O)c2n1 (stereo not shown) [Compound 17, P^1,P^4-bis-(2-methylthio-5′-adenosine)-P^1,P^4-dithio-P^2, P^3-monochloromethylenetetraphosphate] | 13 ± 10
Nc1nc(I)nc2c1ncn2[C@@H]1O[C@H](COP(O)(=S)OP(=O)(O)C(Cl)P(=O)(O)OP(O)(=S)OC[C@H]2O[C@@H](n3cnc4c(N)nc(I)nc43)[C@H](O)[C@@H]2O)[C@@H](O)[C@H]1O (stereo partly shown) [Compound 40, P^1,P^1-bis-(2-iodo-5′-adenosine)-P^1,P^4-dithio-P^2, P^3-monochloromethylenetetraphosphate] | 21 ± 6
Nc1nc(Cl)nc2c1ncn2C1OC(COP(O)(=S)OP(=O)(O)C(Cl)P(=O)(O)OP(O)(=S)OCC2OC(n3cnc4c(N)nc(Cl)nc43)C(O)C2O)C(O)C1O (stereo not shown) [Compound 44, P^1,P^4-bis(2-chloro-5′-adenosine)-P^1,P^4-dithio-P^2,P^3-monochloromethylenetetraphosphate] | 98 ± 4
Bis-adenosine tetraphosphate [Ap4A, reference compound] | 9800 ± 2800
